Values of other authors, collected in US12727761B2, “Dosimetry system for photodynamic anitmicrobial therapy device of infectious keratitis” (UNIVERSITY OF MIAMI, priority 2020, dated 2026).

What was measured:
[1] = test system: fungal and bacterial isolates derived from patients with infectious keratitis; conditions: Rose Bengal photodynamic antimicrobial therapy (RB-PDAT)
corneal infection = conditions: RB-PDAT as experimental therapy for corneal infection
Candida albicans = conditions: erythrosine-mediated PDT
[2] = test system: keratitis derived Acanthamoeba castellanii

SMILES: O=C([O-])c1c(Cl)c(Cl)c(Cl)c(Cl)c1-c1c2cc(I)c(=O)c(I)c-2oc2c(I)c([O-])c(I)cc12.[Na+].[Na+] [Rose Bengal]
- inhibition of fungal and bacterial isolates [1]: fully inhibit
- patients who avoided undergoing emergency corneal transplantation (corneal infection): approximately 72%

SMILES: O=C1OC2(c3ccccc31)c1cc(I)c(O)c(I)c1Oc1c2cc(I)c(O)c1I [erythrosine]
- reduction in concentration (Candida albicans): 1.97 log10

SMILES: CN(C)c1ccc2nc3ccc(=[N+](C)C)cc-3sc2c1 [methylene blue]
- respiratory activity ([2]; methylene blue-mediated PDT): significantly reduce
- effects with traditional Acanthamoeba treatment regimens ([2]; methylene blue-mediated PDT combined with traditional treatment regimens): synergistic effects
